“Also recorded” adds a separate entry of the source. Read-outs that look alike come from different tables or passages of the source.
Key:
HIV-1 TAR RNA (27-mer) = format: binding
[1] = system: Tat ARM binding to HIV-1 TAR RNA
[2] = system: Tat ARM binding to HIV-1 TAR RNA; remark: listed apart in the source
HIV TAR RNA = settings: cited from earlier work
Excerpt: (§1) The precise role of arginine in Tat-mediated RNA recognition came into focus only recently based on the high-resolution NMR analysis of an HIV Tat-ARM in complex with human 7SK RNA and HIV TAR RNA ([19]). When bound to host 7SK, Tat adopts a bent conformation wherein a cluster of three arginines specifically recognizes the Hoogsteen edges of guanine nucleobases. Conversely, the Tat-ARM adopts a more linear conformation that uses two arginines to recognize the Hoogsteen edges of TAR nucleobases. Remarkably, these different modes of base recognition use distinctive arginines from the same Tat pe ...

human 7SK RNA = settings: cited from earlier work
Excerpt: as §1

Ac-GISYGRKKRRQRRRAHQ-NH2 [Tat ARM, reference compound]
Kd (HIV-1 TAR RNA (27-mer)): 166 ± 21 nM
ΔG° (HIV-1 TAR RNA (27-mer)): -9.2 ± 0.1 kcal/mol
ΔH° (HIV-1 TAR RNA (27-mer)): −4.5 ± 0.6 kca/mol
−TΔS° (HIV-1 TAR RNA (27-mer)): -4.8 ± 0.7 kcal/mol
Kd (HIV-1 TAR RNA (27-mer); 20 °C): 135 ± 31 nM
heats of binding of Tat ARM [1]: no significant heats of binding; also recorded: no appreciable heats of binding
Tat binding mode in presence of TB-LP-6.9 [2]: non- identical two- site binding
affinity (HIV TAR RNA): nanomolar affinity
affinity (human 7SK RNA): nanomolar affinity

— PMC7864049, “Co-crystal structures of HIV TAR RNA bound to lab-evolved proteins show key roles for arginine relevant to the design of cyclic peptide TAR inhibitors” (The Journal of Biological Chemistry, 2021)
